{"source": "patent US20210113529A1", "about": "“MEDICINE FOR PREVENTING OR TREATING OPHTHALMIC DISEASE ASSOCIATED WITH ENHANCED INTRAOCULAR NEOVASCULARIZATION AND/OR INTRAOCULAR VASCULAR PERMEABILITY” (KYOTO UNIVERSITY, priority 2018, published 2021)", "key": {"[1]": {"test_system": "laser-induced choroidal neovascularization (CNV) model", "test": "Laser-induced CNV model: fluorescein angiography (FA) grade", "assay_type": "in vivo, mice", "details": "0.03 mg/kg or 0.3 mg/kg orally once daily, each group; Day 14 after laser irradiation", "method": "A Mydrin-P ophthalmic solution (Santen Pharmaceutical Co., Ltd., Mydrin is a trademark) was dropped into the right eye of 8-week-old mice (Japan SLC, Inc., C56BL/6J strain) to cause mydriasis. A solution obtained by diluting a 7:1 mixed anesthetic solution of ketamine and xylazine 10-fold with physiological saline was administered at 10 mL/kg into the femoral muscle. After that, a 0.1% Hyalein (trademark) ophthalmic solution (Santen Pharmaceutical Co., Ltd.) was dropped into the eye so as to prevent the eyeball from drying. […]\nSampling was performed on the 14th day after the laser irradiation. The mice were anesthetized with 10 mL/kg of a solution obtained by diluting a 7:1 mixed anesthetic solution of ketamine and xylazine 10-fold with physiological saline, and then 0.1 mL of a 10-fold dilution of fluorescein (Alcon Japan Ltd.) was administered into the tail vein of the mice, followed by fluorescence fundus photography using Micron 4 (Phoenix Research Laboratories, Inc. Pleasanton, Calif., USA).\nIn FIG. 1 (a), Day 0 indicates images taken on the day of the laser irradiation, and Day 14 indicates images taken on the 14th day. In addition, for the image of each group on Day 14, an FA grade was determined for each laser irradiation site in accordance with grade criteria shown in Table 1 to evaluate the leakage of a fluorescent dye from a neovascularization site. […]"}, "[2]": {"test_system": "retinal vein occlusion (RVO) model", "test": "RVO model: retinal non perfusion area", "assay_type": "in vivo, mice", "method": "Eight-week-old mice (Japan SLC, Inc., ddy strain) were anesthetized by intramuscularly administering 10 mL/kg of a mixed anesthetic solution diluted so as to contain ketamine (120 mg/kg) and xylazine (6 mg/kg). After that, 0.15 mL of rose bengal (20 mg/kg; WAKO) was administered into the tail vein, and a vein three head systems away from the optic nerve head of the right eye of the mice was irradiated with a laser to occlude a retinal vein. Thus, a retinal non perfusion area was generated. For the occlusion, the laser irradiation was performed 10 times to 15 times per vein. For the laser irradiation, an attachment of a fundus photography apparatus Micron 4 (Phoenix Research Laboratories, Inc., Pleasanton, Calif., USA) was used (wavelength: 532 nm, spot size: 50 μm, irradiation time: 5,000 ms, laser output: 50 mW). Three veins were occluded per eye, and it was confirmed with photographs of the fundus that the laser-irradiated veins had been completely occluded. […]\nThe retinal flat mount specimen was photographed under a fluorescence microscope (BX50, Olympus) using a high-sensitivity cooling CCD camera (DP30BW, Olympus) through imaging software Metamorph (Universal Imaging Corp., Downingtown, Pa., USA) on an XY motor-operated stage (Sigma Koki Co., Ltd., Tokyo, Japan). […] The ratio of the retinal non perfusion area was quantified using analysis software in Metamorph. […]"}, "[3]": {"target": "S1P5 receptor (Homo sapiens, UniProt Q9H228)", "sequence (Q9H228 whole entry)": "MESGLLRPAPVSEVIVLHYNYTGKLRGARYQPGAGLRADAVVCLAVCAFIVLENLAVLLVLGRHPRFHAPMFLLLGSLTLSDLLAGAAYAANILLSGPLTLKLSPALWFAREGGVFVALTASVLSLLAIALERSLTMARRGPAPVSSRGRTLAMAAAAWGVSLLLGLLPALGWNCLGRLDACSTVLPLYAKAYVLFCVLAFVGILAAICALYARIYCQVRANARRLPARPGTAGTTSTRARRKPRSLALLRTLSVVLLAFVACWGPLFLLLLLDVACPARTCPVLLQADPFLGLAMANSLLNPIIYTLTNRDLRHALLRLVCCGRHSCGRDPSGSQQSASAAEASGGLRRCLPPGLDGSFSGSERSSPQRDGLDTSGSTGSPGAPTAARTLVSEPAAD", "details": "GTP[γ35S] binding assay; report PLoS One, 2014, 9(10), e110819; read-out: EC50 for S1P5 receptor agonist activity; cited from earlier work"}}}
{"smiles": "C[C@H](Oc1ccc(-c2nc(-c3ccc4[nH]cnc4c3)no2)cc1C(F)(F)F)C(F)(F)F.Cl", "note": "[Compound 1, 5-{5-[3-(trifluoromethyl)-4-{[(2S)-1,1,1-trifluoropropan-2-yl]oxy}phenyl]-1,2,4-oxadiazol-3-yl}-1H-benzimidazole monohydrochloride]", "values": [{"measurement": "FA grade as compared to the vehicle group", "setting": "[1]", "result": "significantly lowered"}, {"measurement": "enlargement of the non perfusion area", "setting": "[2]; early administration: 0.3 mg/kg orally 12 hours before and immediately after laser irradiation", "result": "significantly reduced the enlargement of the non perfusion area"}, {"measurement": "enlargement of the non perfusion area", "setting": "[2]; late administration: 0.3 mg/kg orally twice at an interval of 12 hours on the 7th day after laser irradiation", "result": "significantly reduced the enlargement of the non perfusion area"}, {"measurement": "EC50", "setting": "[3]", "result": 7.5, "unit": "nM"}]}
